Assay [1] addresses T1, AEA-DA lipid probe targets in Neuro2a cells (Mus musculus, UniProt Q02819).
T1 sequence (Q02819 26-459): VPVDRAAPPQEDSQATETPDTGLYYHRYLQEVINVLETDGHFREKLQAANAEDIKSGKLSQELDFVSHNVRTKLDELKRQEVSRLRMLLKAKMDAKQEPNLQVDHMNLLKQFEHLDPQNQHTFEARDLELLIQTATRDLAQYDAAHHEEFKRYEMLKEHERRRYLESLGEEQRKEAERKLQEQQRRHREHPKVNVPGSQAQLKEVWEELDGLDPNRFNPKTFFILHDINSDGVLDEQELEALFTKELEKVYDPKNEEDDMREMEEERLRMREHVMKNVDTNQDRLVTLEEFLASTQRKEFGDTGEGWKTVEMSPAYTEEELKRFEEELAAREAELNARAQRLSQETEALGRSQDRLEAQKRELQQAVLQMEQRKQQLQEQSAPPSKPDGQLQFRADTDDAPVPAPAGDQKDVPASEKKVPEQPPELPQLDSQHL

In assay [2] the target is T2, AEA-DA lipid probe targets in Neuro2a cells (Mus musculus, UniProt O89023).
T2 sequence (O89023 195-562): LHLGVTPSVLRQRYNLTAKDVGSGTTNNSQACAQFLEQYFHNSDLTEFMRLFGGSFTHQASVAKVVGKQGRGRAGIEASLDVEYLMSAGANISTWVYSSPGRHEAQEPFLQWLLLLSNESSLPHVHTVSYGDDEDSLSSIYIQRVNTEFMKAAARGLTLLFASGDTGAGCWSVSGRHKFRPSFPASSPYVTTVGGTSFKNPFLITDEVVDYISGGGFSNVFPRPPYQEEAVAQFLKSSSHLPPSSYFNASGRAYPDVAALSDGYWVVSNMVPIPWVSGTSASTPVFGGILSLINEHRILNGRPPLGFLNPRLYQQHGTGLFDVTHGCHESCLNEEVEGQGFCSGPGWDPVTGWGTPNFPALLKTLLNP

Assay [3] addresses T3, AEA-DA lipid probe targets in Neuro2a cells (Mus musculus, UniProt Q8R127).
T3 sequence (Q8R127 1-429): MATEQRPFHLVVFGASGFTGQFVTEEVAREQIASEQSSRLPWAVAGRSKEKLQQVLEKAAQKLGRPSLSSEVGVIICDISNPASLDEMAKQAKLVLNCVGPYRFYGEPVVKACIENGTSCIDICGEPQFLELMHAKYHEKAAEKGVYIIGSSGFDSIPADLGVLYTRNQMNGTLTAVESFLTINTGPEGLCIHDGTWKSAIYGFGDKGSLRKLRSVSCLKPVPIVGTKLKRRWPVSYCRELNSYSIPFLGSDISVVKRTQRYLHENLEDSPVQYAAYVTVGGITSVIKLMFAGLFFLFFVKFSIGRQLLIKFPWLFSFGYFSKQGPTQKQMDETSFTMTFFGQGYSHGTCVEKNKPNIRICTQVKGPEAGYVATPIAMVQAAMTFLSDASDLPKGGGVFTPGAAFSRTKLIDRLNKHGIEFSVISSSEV

The target of assay [4] is T4, AEA-DA lipid probe targets in Neuro2a cells (Mus musculus, UniProt Q61425).
T4 sequence (Q61425 13-314): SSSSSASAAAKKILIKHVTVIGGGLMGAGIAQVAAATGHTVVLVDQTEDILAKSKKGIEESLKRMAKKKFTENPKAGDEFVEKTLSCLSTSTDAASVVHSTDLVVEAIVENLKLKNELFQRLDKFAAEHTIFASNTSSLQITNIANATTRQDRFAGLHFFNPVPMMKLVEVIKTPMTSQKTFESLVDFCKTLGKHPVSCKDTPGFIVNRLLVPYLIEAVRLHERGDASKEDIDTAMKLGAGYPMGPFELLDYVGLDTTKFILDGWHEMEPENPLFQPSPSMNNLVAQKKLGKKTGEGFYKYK

In assay [5] the target is AEA-DA lipid probe targets in Neuro2a cells (Mus musculus, UniProt Q99KQ4).
The target of assay [6] is T5, AEA-DA lipid probe targets in Neuro2a cells (Mus musculus, UniProt Q8CHK3).
T5 sequence (Q8CHK3 1-473): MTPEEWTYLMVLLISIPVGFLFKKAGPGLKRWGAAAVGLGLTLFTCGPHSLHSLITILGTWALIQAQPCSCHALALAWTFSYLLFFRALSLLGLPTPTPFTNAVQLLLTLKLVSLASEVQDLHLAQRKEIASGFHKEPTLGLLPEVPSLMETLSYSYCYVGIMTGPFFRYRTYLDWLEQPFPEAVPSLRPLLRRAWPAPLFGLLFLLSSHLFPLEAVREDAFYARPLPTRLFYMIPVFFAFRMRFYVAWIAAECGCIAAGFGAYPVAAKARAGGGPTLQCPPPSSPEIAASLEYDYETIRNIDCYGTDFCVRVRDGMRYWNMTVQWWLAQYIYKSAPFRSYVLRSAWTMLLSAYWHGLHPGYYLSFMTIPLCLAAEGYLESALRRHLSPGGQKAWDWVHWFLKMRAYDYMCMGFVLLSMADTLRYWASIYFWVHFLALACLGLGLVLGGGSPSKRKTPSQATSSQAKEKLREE

For assay [7], the target named is T6, AEA-DA lipid probe targets in Neuro2a cells (Mus musculus, UniProt Q3KNM2).
T6 sequence (Q3KNM2 1-278): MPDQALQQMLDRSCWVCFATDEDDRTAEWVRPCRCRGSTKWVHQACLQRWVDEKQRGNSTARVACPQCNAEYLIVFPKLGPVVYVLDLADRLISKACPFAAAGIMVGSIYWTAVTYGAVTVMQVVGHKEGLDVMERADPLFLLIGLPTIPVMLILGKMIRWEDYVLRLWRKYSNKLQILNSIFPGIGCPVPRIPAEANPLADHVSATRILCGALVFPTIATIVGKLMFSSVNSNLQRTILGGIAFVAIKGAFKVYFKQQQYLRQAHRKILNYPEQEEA
Particulars: for SILAC ratio, MARCH5 (Q3KNM2): Neuro2a cells, AEA-DA probe.

Results on five compounds are retold here after patent US10168342B2, “Lipid probes and uses thereof” (THE SCRIPPS RESEARCH INSTITUTE, priority 2015, dated 2019).

Molecules are shown by their SMILES. Read-outs that look alike come from different tables or passages of the source.

AEA-DA lipid probe targets in Neuro2a cells (Mus musculus, UniProt Q99KQ4), sequence (Q99KQ4 whole entry): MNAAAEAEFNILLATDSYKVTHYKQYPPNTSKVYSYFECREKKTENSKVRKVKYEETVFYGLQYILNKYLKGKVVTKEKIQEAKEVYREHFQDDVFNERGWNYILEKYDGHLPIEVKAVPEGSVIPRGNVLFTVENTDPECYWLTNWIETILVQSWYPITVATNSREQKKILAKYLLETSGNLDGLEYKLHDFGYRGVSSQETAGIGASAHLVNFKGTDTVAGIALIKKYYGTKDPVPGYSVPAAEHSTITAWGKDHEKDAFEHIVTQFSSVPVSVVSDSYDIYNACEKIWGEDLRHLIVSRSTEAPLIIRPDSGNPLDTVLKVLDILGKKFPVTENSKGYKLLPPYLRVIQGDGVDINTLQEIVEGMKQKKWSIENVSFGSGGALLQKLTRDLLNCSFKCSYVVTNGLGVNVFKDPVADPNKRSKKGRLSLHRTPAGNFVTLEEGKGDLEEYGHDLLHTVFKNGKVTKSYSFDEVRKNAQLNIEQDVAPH

On to `CCCCC/C=C\C/C=C\C/C=C\C/C=C\CCCC(=O)NCCO` [AEA, anandamide, reference compound], for which the “SILAC ratio, Nucb1” value in assay [1] (competitor 200 μM) is 1.5. In assay [2] (competitor 200 μM), the “SILAC ratio Tpp1” value was found to be 1.5. In assay [3] (competitor 200 μM), the “SILAC ratio, Sccpdh” value is recorded as 3.4. Besides, the “SILAC ratio Hadh” value in assay [4] (competitor 200 μM) was 1.2. The “SILAC ratio, Nampt” value in assay [5] (competitor 200 μM) was 1.1.
With `C=CCN(C)CCCCCCOc1ccc(C(=O)c2ccc(Br)cc2)c(F)c1` [Ro 48-8071, reference compound], in assay [6] (competitor 25 μM), the “SILAC ratio, Mboat7” value came out at 1.1. The “SILAC ratio, Nucb1” value in assay [1] (competitor 25 μM) came out at 0.9. Moreover, the “SILAC ratio Tpp1” value in assay [2] (competitor 25 μM) stood at 0.8. In assay [7] (competitor 25 μM), the “SILAC ratio, MARCH5 (Q3KNM2)” value stood at 1.1 and the “SILAC ratio, March5” value is recorded as 1.1. For the same compound, in assay [3] (competitor 25 μM), the “SILAC ratio, Sccpdh” value is listed as 1.6. Further, the “SILAC ratio Hadh” value in assay [4] (competitor 25 μM) is 0.8. Besides, the “SILAC ratio, Nampt” value in assay [5] (competitor 25 μM) worked out at 0.9.
Turning to `CN1CCN(C(=O)c2c(-c3ccccc3)c3cc([N+](=O)[O-])ccc3n2C)CC1` [KML110, (1-Methyl-5-nitro-3-phenyl-1H-indol-2-yl)(4-methylpiperazin-1-yl)methanone], the “SILAC ratio, Mboat7” value in assay [6] (competitor 25 μM) amounted to 1.7. In addition, the “SILAC ratio, Nucb1” value in assay [1] (competitor 25 μM) is listed as 3.4. The “SILAC ratio Tpp1” value in assay [2] (competitor 25 μM) is reported as 1.5. The “SILAC ratio, March5” value in assay [7] (competitor 25 μM) came to 1.5. The “SILAC ratio, Sccpdh” value in assay [3] (competitor 25 μM) was 2.6. Also, the “SILAC ratio Hadh” value in assay [4] (competitor 25 μM) was found to be 1.2. In addition, in assay [5] (competitor 25 μM), the “SILAC ratio, Nampt” value was 2.0.
In the case of `O=C(/C=C/c1cccnc1)NCCCCC1CCN(C(=O)c2ccccc2)CC1` [FK-866, reference compound], the “SILAC ratio, Mboat7” value in assay [6] (competitor 25 μM) is listed as 1.1. In addition, the “interaction with NUCB1 protein” value in assay [1] (FIG. 16I and Table 4) was “did not interact”. The “SILAC ratio, Nucb1” value in assay [1] (competitor 25 μM) came to 1.2. In assay [2] (competitor 25 μM), the “SILAC ratio Tpp1” value was 1.0. Moreover, in assay [7] (competitor 25 μM), the “SILAC ratio, MARCH5 (Q3KNM2)” value is given as 1.3 and the “SILAC ratio, March5” value came to 1.3. Moreover, the “SILAC ratio, Sccpdh” value in assay [3] (competitor 25 μM) worked out at 7.3. Besides, the “SILAC ratio Hadh” value in assay [4] (competitor 25 μM) is reported as 1.2. In addition, the “SILAC ratio, Nampt” value in assay [5] (competitor 25 μM) was 16.4.
With `CN1CCN(C(=O)c2[nH]c3ccc([N+](=O)[O-])cc3c2-c2ccccc2)CC1` [MJN228, (4-Methylpiperazin-1-yl)(5-nitro-3-phenyl-1H-indol-2-yl)methanone], the “SILAC ratio, Mboat7” value in assay [6] (competitor 10 μM) is recorded as 1.2; in assay [6] (competitor 25 μM), 1.6; in assay [6] (competitor 50 μM) it was 1.9; in assay [6] (competitor 100 μM) it was 2.3. The “concentration at which lipid probe binding to NUCB1 is inhibited (as low as)” value in assay [1] (Neuro2a cells, AEA-DA 5 μM) was found to be 10 µM. In addition, the “concentration of near-maximal inhibition of lipid probe binding to NUCB1” value in assay [1] (Neuro2a cells, AEA-DA 5 μM) is around 25 µM. Besides, the “SILAC ratio, Nucb1” value in assay [1] (competitor 10 μM) is 3.1; in assay [1] (competitor 25 μM), 4.7; in assay [1] (competitor 50 μM), 5.6; in assay [1] (competitor 100 μM), 6.2. The “SILAC ratio Tpp1” value in assay [2] (competitor 10 μM) came to 1.4; in assay [2] (competitor 25 μM), 1.4; in assay [2] (competitor 50 μM), 1.8; in assay [2] (competitor 100 μM), 2.0. In addition, the “SILAC ratio, MARCH5 (Q3KNM2)” value in assay [7] (competitor 25 μM) is on record as 1.1. The “SILAC ratio, March5” value in assay [7] (competitor 10 μM) is on record as 1.1; in assay [7] (competitor 25 μM), 1.1; in assay [7] (competitor 50 μM), 1.0; in assay [7] (competitor 100 μM), 1.1. Moreover, the “SILAC ratio, Sccpdh” value in assay [3] (competitor 10 μM) came to 1.4; in assay [3] (competitor 25 μM), 2.1; in assay [3] (competitor 50 μM), 3.3; in assay [3] (competitor 100 μM), 5.9. In addition, the “SILAC ratio Hadh” value stood at 1.3 in assay [4] (competitor 10 μM), 1.3 in assay [4] (competitor 25 μM), 1.1 in assay [4] (competitor 50 μM) and 1.3 in assay [4] (competitor 100 μM). Besides, the “SILAC ratio, Nampt” value was 1.2 in assay [5] (competitor 25 μM) and 1.0 in assay [5] (competitor 50 μM).
